# Data: US6734194B2, “Method of use of (imidazol-5-yl)methyl-2-quinolinone derivatives to inhibit smooth muscle cell proliferation” (Janssen Pharmaceutica N.V., priority 1997, dated 2004)
# How the values were obtained:
# Type in all cases: cell-based
# [1] = system: rat A10 arterial smooth muscle cells; assay: Inhibition of smooth muscle cell proliferation, A10 cells; conditions: 144 h, A10 cell line, incubated six days, Coulter cell count normalized to DMSO-treated controls, read-out: IC50 (concentration of test compound producing a 50% inhibition of cell proliferation)
# Excerpt: (§1) The effects of the compounds of the present invention were studied in human pulmonary artery smooth muscle cells (PASMC), human coronary artery smooth muscle cells (CASMC), and rat A10 arterial smooth muscle cells growing under standard tissue culture conditions. CASMC and PASMC cell cultures were purchased from Clonetics (San Diego, Calif.). A10 smooth muscle cells were purchased from the American Type Culture Collection (Bethesda, Md.). Cells were inoculated at an initial cell density of 50,000 cells per well in six-well plastic cluster tissue culture dishes in 3.0 ml of complete growth medium. Test compounds were dissolved in dimethysulfoxide (DMSO) and added in a 3 μl volume to each well to produce the desired concentrations of said test compound (5, 10, 50, 100 and 500 nM final concentrations). Cells were incubated for six days. On day 4, fresh medium plus a fresh solution containing the test compound were added to the cell cultures. On day 6, the growth medium was removed by aspiration. The cells were detached by trypsinizing in 1.0 ml of trypsin-EDTA solution. The cell suspensions were transferred to 20 ml of an isotonic diluent and 0.5 ml of the diluted cell suspension was counted with a Coulter particle counter. Cell counts from test compound-treated cultures were normalized to cell counts obtained from DMSO-treated controls and expressed as percent inhibition. […]
# [2] = system: human pulmonary artery smooth muscle cells (PASMC); assay: Inhibition of smooth muscle cell proliferation, PASMC; conditions: 144 h, PASMC cell line, incubated six days, Coulter cell count normalized to DMSO-treated controls, read-out: IC50 (concentration of test compound producing a 50% inhibition of cell proliferation)
# Excerpt: as §1
# [3] = system: human coronary artery smooth muscle cells (CASMC); assay: Inhibition of smooth muscle cell proliferation, CASMC; conditions: 144 h, CASMC cell line, incubated six days, Coulter cell count normalized to DMSO-treated controls, read-out: IC50 (concentration of test compound producing a 50% inhibition of cell proliferation)
# Excerpt: as §1
smiles,measurement,setting,value
"Cn1cncc1C(N)(c1ccc(Cl)cc1)c1ccc2c(c1)c(-c1cccc(Cl)c1)cc(=O)n2C (single isomer, unassigned; (+)) [Co. No. 75, (+)-6-[amino(4-chloro-phenyl)(1-methyl-1H-imidazol-5-yl)methyl]-4-(3-chlorophenyl)-1-methyl-2(1H)-quinolinone]",IC50,[1],14 nM
same,IC50,[2],24 nM
same,IC50,[3],16 nM
